Laboratory results: ChEMBL document CHEMBL1201862, “PubChem BioAssay data set” (2004)
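Where inhibition never reached the appropriate level, the endpoint shown equals the highest concentration tested. Otherwise, values were interpolated linearly from a five-concentration, 48-hour dose response in 96-well plates. GI50 = concentration required for 50% inhibition of growth.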 Calls of active or inactive are those of the source. No stated cut-off is given here; in the data, active = GI50 up to about 1.1 µM and inactive = higher.

Assays:
Experiment in all cases: DTP human tumour cell line panel, 48 h
OVCAR-3 = tested on: OVCAR-3
ACHN = tested on: ACHN
K562 = tested on: K562
U-251 = tested on: U-251
KM-20L2 = tested on: KM-20L2
SR = tested on: SR
HL-60 = tested on: HL-60
LXFL 529 = tested on: LXFL 529
KM12 = tested on: KM12
UACC-62 = tested on: UACC-62
SNB-75 = tested on: SNB-75
UO-31 = tested on: UO-31
HOP-92 = tested on: HOP-92
A498 = tested on: A498
M19-MEL = tested on: M19-MEL
Malme-3M = tested on: Malme-3M
RXF 393 = tested on: RXF 393
OVCAR-5 = tested on: OVCAR-5
NCI-H522 = tested on: NCI-H522
RPMI-8226 = tested on: RPMI-8226
IGROV-1 = tested on: IGROV-1
NCI-H23 = tested on: NCI-H23
SNB-19 = tested on: SNB-19
HT-29 = tested on: HT-29
SNB-78 = tested on: SNB-78
SK-MEL-2 = tested on: SK-MEL-2
NCI-H460 = tested on: NCI-H460
UACC-257 = tested on: UACC-257
HOP-62 = tested on: HOP-62
SK-OV-3 = tested on: SK-OV-3
MOLT-4 = tested on: MOLT-4
SF-268 = tested on: SF-268
CCRF-CEM = tested on: CCRF-CEM
SF-295 = tested on: SF-295
COLO 205 = tested on: COLO 205
OVCAR-4 = tested on: OVCAR-4
DMS-114 = tested on: DMS-114
SK-MEL-28 = tested on: SK-MEL-28
M14 = tested on: M14
TK-10 = tested on: TK-10
HCT-15 = tested on: HCT-15
NCI-H226 = tested on: NCI-H226
T47D = tested on: T47D
LOX IMVI = tested on: LOX IMVI
MDA-N = tested on: MDA-N
MDA-MB-231 = tested on: MDA-MB-231
HCC 2998 = tested on: HCC 2998
PC-3 = tested on: PC-3
786-0 = tested on: 786-0
BT-549 = tested on: BT-549
MCF7 = tested on: MCF7
SK-MEL-5 = tested on: SK-MEL-5
SF-539 = tested on: SF-539
OVCAR-8 = tested on: OVCAR-8
MDA-MB-435 = tested on: MDA-MB-435
HCT-116 = tested on: HCT-116
NCI/ADR-RES = tested on: NCI/ADR-RES
SW-620 = tested on: SW-620
Hs-578T = tested on: Hs-578T
DU-145 = tested on: DU-145
EKVX = tested on: EKVX
CAKI-1 = tested on: CAKI-1
SN12C = tested on: SN12C
A549 = tested on: A549

Structure (SMILES): CCO[C@@H]1OC(=O)[C@@](C)(C(C)=O)[C@@H]1C
- GI50 (OVCAR-3): 14.4 µM (inactive)
- GI50 (ACHN): > 100 µM (inactive)
- GI50 (K562): 30.5 µM (inactive)
- GI50 (U-251): 21 µM (inactive)
- GI50 (KM-20L2): 41.4 µM (inactive)
- GI50 (SR): 25.5 µM (inactive)
- GI50 (HL-60): 23 µM (inactive)
- GI50 (LXFL 529): 19.5 µM (inactive)
- GI50 (KM12): 28.4 µM (inactive)
- GI50 (UACC-62): 20.9 µM (inactive)
- GI50 (SNB-75): 3.27 µM (inactive)
- GI50 (UO-31): 37.9 µM (inactive)
- GI50 (HOP-92): 26.1 µM (inactive)
- GI50 (A498): > 100 µM (inactive)
- GI50 (M19-MEL): 19.1 µM (inactive)
- GI50 (Malme-3M): 23.3 µM (inactive)
- GI50 (RXF 393): 24.1 µM (inactive)
- GI50 (OVCAR-5): 60 µM (inactive)
- GI50 (NCI-H522): > 100 µM (inactive)
- GI50 (RPMI-8226): 18.7 µM (inactive)
- GI50 (IGROV-1): 36.5 µM (inactive)
- GI50 (NCI-H23): 14.5 µM (inactive)
- GI50 (SNB-19): 19.1 µM (inactive)
- GI50 (HT-29): 17.5 µM (inactive)
- GI50 (SNB-78): 25 µM (inactive)
- GI50 (SK-MEL-2): 20.4 µM (inactive)
- GI50 (NCI-H460): > 100 µM (inactive)
- GI50 (UACC-257): 24.4 µM (inactive)
- GI50 (HOP-62): 20.8 µM (inactive)
- GI50 (SK-OV-3): 43.6 µM (inactive)
- GI50 (MOLT-4): 19.2 µM (inactive)
- GI50 (SF-268): 18.3 µM (inactive)
- GI50 (CCRF-CEM): 13 µM (inactive)
- GI50 (SF-295): 20.1 µM (inactive)
- GI50 (COLO 205): 87.7 µM (inactive)
- GI50 (OVCAR-4): 29 µM (inactive)
- GI50 (DMS-114): 19.1 µM (inactive)
- GI50 (SK-MEL-28): 15.7 µM (inactive)
- GI50 (M14): 26 µM (inactive)

Structure (SMILES): C[C@@H]1C[C@@H]2OC(=O)[C@]3(C)[C@H]2[C@@H](OC3(C)O)[C@]2(C)C(=O)C=C[C@@H]12 (stereo partly specified) [TENULIN]
- GI50 (OVCAR-3): 20.6 µM (inactive)
- GI50 (TK-10): 18 µM (inactive)
- GI50 (HCT-15): 10.1 µM
- GI50 (ACHN): 19.5 µM (inactive)
- GI50 (K562): 0.0543 µM (active)
- GI50 (NCI-H226): 74 µM (inactive)
- GI50 (T47D): 19 µM (inactive)
- GI50 (U-251): 40.3 µM (inactive)
- GI50 (SR): 5.18 µM (inactive)
- GI50 (HL-60): 3.48 µM (inactive)
- GI50 (LOX IMVI): 19.2 µM (inactive)
- GI50 (KM12): 23.6 µM (inactive)
- GI50 (UACC-62): 16.8 µM (inactive)
- GI50 (MDA-N): 17.5 µM (inactive)
- GI50 (SNB-75): > 100 µM (inactive)
- GI50 (UO-31): 40.8 µM (inactive)
- GI50 (HOP-92): 17.5 µM (inactive)
- GI50 (MDA-MB-231): 25 µM (inactive)
- GI50 (HCC 2998): 17.2 µM (inactive)
- GI50 (PC-3): 87.9 µM (inactive)
- GI50 (A498): 22.6 µM (inactive)
- GI50 (786-0): 31.1 µM (inactive)
- GI50 (Malme-3M): 13.6 µM (inactive)
- GI50 (RXF 393): 18.7 µM (inactive)
- GI50 (OVCAR-5): 19.9 µM (inactive)
- GI50 (NCI-H522): 6.67 µM (inactive)
- GI50 (BT-549): 10.1 µM (inactive)
- GI50 (RPMI-8226): 4.3 µM (inactive)
- GI50 (MCF7): 15.7 µM (inactive)
- GI50 (IGROV-1): > 10 µM (inactive)
- GI50 (NCI-H23): 25.9 µM (inactive)
- GI50 (SNB-19): 41.4 µM (inactive)
- GI50 (HT-29): 15.2 µM (inactive)
- GI50 (SK-MEL-5): 20.2 µM (inactive)
- GI50 (SK-MEL-2): 19.8 µM (inactive)
- GI50 (UACC-257): 18 µM (inactive)
- GI50 (SF-539): 32.1 µM (inactive)
- GI50 (HOP-62): 87.7 µM (inactive)
- GI50 (OVCAR-8): 32.4 µM (inactive)
- GI50 (SK-OV-3): > 100 µM (inactive)
- GI50 (MDA-MB-435): 24.2 µM (inactive)
- GI50 (MOLT-4): 16.4 µM (inactive)
- GI50 (HCT-116): 16.6 µM (inactive)
- GI50 (SF-268): 31.3 µM (inactive)
- GI50 (NCI/ADR-RES): > 100 µM (inactive)
- GI50 (SW-620): 16.9 µM (inactive)
- GI50 (CCRF-CEM): 4.68 µM (inactive)
- GI50 (Hs-578T): 51.6 µM (inactive)
- GI50 (SF-295): > 100 µM (inactive)
- GI50 (DU-145): 39.6 µM (inactive)
- GI50 (EKVX): 20.2 µM (inactive)
- GI50 (COLO 205): 14.2 µM (inactive)
- GI50 (CAKI-1): 22.1 µM (inactive)
- GI50 (OVCAR-4): 10.8 µM (inactive)
- GI50 (SN12C): 18.3 µM (inactive)
- GI50 (SK-MEL-28): 18.3 µM (inactive)
- GI50 (A549): > 100 µM (inactive)
- GI50 (M14): 20.6 µM (inactive)

Structure (SMILES): Cc1cc(=O)oc2cc3oc(N(C)c4ccccc4)nc(=O)c3cc12
- GI50 (OVCAR-3): > 100 µM (inactive)
- GI50 (TK-10): > 100 µM (inactive)
- GI50 (HCT-15): > 100 µM
- GI50 (ACHN): > 100 µM (inactive)
- GI50 (K562): > 100 µM (inactive)
- GI50 (NCI-H226): > 100 µM (inactive)
- GI50 (T47D): > 100 µM (inactive)
- GI50 (U-251): 56 µM (inactive)
- GI50 (SR): 82.2 µM (inactive)
- GI50 (HL-60): > 100 µM (inactive)
- GI50 (LOX IMVI): > 100 µM (inactive)
- GI50 (KM12): > 100 µM (inactive)
- GI50 (UACC-62): > 100 µM (inactive)
- GI50 (MDA-N): > 100 µM (inactive)
- GI50 (SNB-75): > 100 µM (inactive)
- GI50 (UO-31): > 100 µM (inactive)
- GI50 (HOP-92): 22.7 µM (inactive)
- GI50 (MDA-MB-231): > 100 µM (inactive)
- GI50 (HCC 2998): > 100 µM (inactive)
- GI50 (PC-3): > 100 µM (inactive)
- GI50 (A498): > 100 µM (inactive)
- GI50 (786-0): > 100 µM (inactive)
- GI50 (Malme-3M): > 100 µM (inactive)
- GI50 (RXF 393): > 100 µM (inactive)
- GI50 (OVCAR-5): > 100 µM (inactive)
- GI50 (NCI-H522): 58.9 µM (inactive)
- GI50 (BT-549): 50.2 µM (inactive)
- GI50 (RPMI-8226): > 100 µM (inactive)
- GI50 (MCF7): > 100 µM (inactive)
- GI50 (IGROV-1): > 100 µM (inactive)
- GI50 (NCI-H23): > 100 µM (inactive)
- GI50 (SNB-19): 67.9 µM (inactive)
- GI50 (HT-29): > 100 µM (inactive)
- GI50 (SK-MEL-5): > 100 µM (inactive)
- GI50 (SK-MEL-2): > 100 µM (inactive)
- GI50 (NCI-H460): > 100 µM (inactive)
- GI50 (UACC-257): > 100 µM (inactive)
- GI50 (SF-539): > 100 µM (inactive)
- GI50 (HOP-62): > 100 µM (inactive)
- GI50 (OVCAR-8): 42.4 µM (inactive)
- GI50 (SK-OV-3): > 100 µM (inactive)
- GI50 (MDA-MB-435): > 100 µM (inactive)
- GI50 (MOLT-4): > 100 µM (inactive)
- GI50 (HCT-116): > 100 µM (inactive)
- GI50 (SF-268): 40.9 µM (inactive)
- GI50 (NCI/ADR-RES): > 100 µM (inactive)
- GI50 (SW-620): > 100 µM (inactive)
- GI50 (CCRF-CEM): > 100 µM (inactive)
- GI50 (Hs-578T): 46.7 µM (inactive)
- GI50 (SF-295): > 100 µM (inactive)
- GI50 (DU-145): > 100 µM (inactive)
- GI50 (EKVX): > 100 µM (inactive)
- GI50 (COLO 205): > 100 µM (inactive)
- GI50 (CAKI-1): > 100 µM (inactive)
- GI50 (OVCAR-4): > 100 µM (inactive)
- GI50 (SN12C): > 100 µM (inactive)
- GI50 (SK-MEL-28): > 100 µM (inactive)
- GI50 (A549): > 100 µM (inactive)
- GI50 (M14): > 100 µM (inactive)
